In EP0245669B1, “Pharmaceutical preparation for preventing damage to living cells by free radicals, or for increasing the efficacy of organic sulphur compounds, and process for increasing the life span of isolated organs” (Medopharm Arzneimittelwerk Dr. Zillich GmbH & Co., priority 1986, dated 1987):
Where a name gives a salt, the structure may show the parent alone.

Test system: weiblichen C3H Mäusen
Test: Radiation protection: survival of mice after gamma irradiation (cobalt-60) following i.p. pretreatment
Type: in vivo, Mäuse
Conditions: for Ueberlebensrate nach Bestrahlung mit 10 Gy / überlebten eine Bestrahlung mit 10 Gy: 10 min before 10 Gy; for Ueberlebensrate nach Bestrahlung mit 10 Gy / Ueberlebensrate nach Bestrahlung mit 9 Gy / Ueberlebensrate nach Bestrahlung mit 11 Gy / Ueberlebensrate nach Bestrahlung mit 14 Gy / Ueberlebensrate nach Bestrahlung mit 12 Gy / Ueberlebensrate nach Bestrahlung mit 13 Gy: surviving after 30 days/irradiated mice; for Ueberlebensrate nach Bestrahlung mit 9 Gy / überlebten eine Bestrahlung mit 9 Gy: 10 min before 9 Gy; for Ueberlebensrate in %: AET alone in optimal dosage, 30 days after irradiation
Source text: In den nachfolgenden Beispielen wurde die synergistische Wirkung der durch die erfindungsgemässe Verwendung hergestellten pharmazeutischen Präparate mit organische Schwefelverbindungen enthaltenden Präparaten anhand des Strahlenschutzes getestet und es wurde auch die Strahlenschutzwirkung der Zinkionen enthaltenden Präparate mit bisher bekannten Strahlenschutzpräparaten an Mäusen getestet. Die Versuche wurden mit weiblichen C3H Mäusen (GL. Bomholtgard, Ry, Dänemark) durchgeführt, die 20 bis 22 g wogen. Die Mäuse wurden unter Bedingungen gehalten, wo sie so viel Standard-Nagetierfutter (Nafag Pellts) fressen und so viel Leitungswasser trinken können, wie sie wollten. Die Bestrahlung erfolgte mit Gammastrahlen aus einer Kobalt-60 Quelle. Es wurden unterschiedliche Bestrahlungen vorgenommen, und zwar mit 9 Gy, 10 Gy, 11 Gy, 12 Gy, 13 Gy und 14 Gy.
10 Minuten vor der Bestrahlung, 30 Minuten vor der Bestrahlung oder 120 Minuten vor der Bestrahlung wurde ein durch die erfindungsgemässe Verwendung hergestelltes synergistisch wirkendes pharmazeutisches Präparat, bzw. ein entsprechendes, Zinkionen enthaltendes Strahlenschutzpräparat oder ein aus dem Stand der Technik bekanntes Strahlenschutzpräparat zu Vergleichszwecken durch intraperitoneale Injektion verabreicht.
Bei der Gruppe der Mäuse zu Vergleichszwecken, die ohne Verabreichung eines Strahlenschutzpräparates bestrahlt wurden, erfolgte 10 Minuten vor der Bestrahlung die Verabreichung von destilliertem Wasser. Bei diesen unbehandelten Mäusen überlebten nur 50% der Tiere eine Bestrahlung von 8 Gy, d.h. der LD₅₀-Wert betrug 8 Gy.
Nach den Arbeitsweisen der vorangegangenen Beispiele 1 bis 4, wurden weitere Tests mit den genannten weiblichen Mäusen durchgeführt, und zwar unter Verwendung der angeführten Zinksalze. Die bei diesen Tests erzielten Ergebnisse sind in der nachfolgenden Tabelle I zusammengestellt. Für jede der angewandten Bestrahlungsstärken ist in der Rubrik "Anzahl" diejenige Anzahl der Mäuse angeführt, welche die Bestrahlung überlebten, geteilt durch die Gesamtzahl der Mäuse, welche bestrahlt wurden. Ein entsprechender Wert von 1/10 bedeutet also, dass von 10 bestrahlten Mäusen eine überlebt hatte. In der Spalte mit der Bezeichnung "Prozent", ist die Prozent-Ueberlebensrate angeführt. Bei einer überlebenden Maus pro 10 getesteten Mäusen beträgt diese Ueberlebensrate 10 %.
Zu Vergleichszwecken sind in der nachfolgenden Tabelle III die Ueberlebensraten von Mäusen zusammengestellt, die nach dem in Beispiel 5 beschriebenen Verfahren einer Vorbehandlung mit einem bekannten schwefelhaltigen Strahlenschutzmittel unterworfen worden waren. Orientierende Vorversuche hatten gezeigt, dass diese Strahlenschutzmittel bereits ihre Wirkung verloren hatten, wenn sie zwei Stunden vor der Einwirkung der Bestrahlung verabreicht worden waren. Die Bestrahlung wurde, wie aus der Tabelle ersichtlich ist, zwei Minuten nach der Verabreichung, in den meisten Fällen 10 Minuten nach der Verabreichung, aber auch 30 Minuten, bzw. 120 Minuten nach der Verabreichung durchgeführt. Die Werte deuten darauf hin, dass 30 Minuten nach der Verabreichung die Schutzwirkung schon wieder deutlich nachgelassen hat. Für jede Bestrahlungsstärke ist wiederum die Anzahl der Tiere angeführt, die nach 30 Tagen überlebt haben, geteilt durch die Gesamtzahl der Tiere, die behandelt und bestrahlt worden waren.
Anhand dieses Beispiels soll die synergistische Wirkung von Zinkionen und Schwefelverbindungen bezüglich eines Strahlenschutzes erläutert werden. Es wurde wieder in der gleichen Weise gearbeitet, wie in den vorangegangenen Beispielen 1 bis 3, bzw. 5, und es wurde auch die gleiche Art an weiblichen Mäusen getestet. Die Verabreichung der Zinkionen enthaltenden Lösung und der Lösung der Schwefelverbindung erfolgte entweder nacheinander oder gleichzeitig durch intraperitoneale Injektion.
In allen Fällen wurde die Ueberlebensrate 30 Tage nach der Einwirkung der Bestrahlung bestimmt.

[1] = comparison with the zinc compounds to be used according to the invention

Q: Kupferaspartat [reference compound] was tested. Which Strahlenschutzwirkung (10 to 30 mg/kg body weight injected 10 min before 9 Gy, lethal dose already reached) did it give?
A: Its Strahlenschutzwirkung is “wirkungslos”.

Q: With `NCCS` [Cysteamin, β-Merkaptoäthylamin, reference compound] as the compound, how does the “Ueberlebensrate nach Bestrahlung mit 10 Gy” value (75 mg/kg i.p.) read?
A: Its value is 0/10.

Q: What about the Strahlenschutzwirkung (150 mg/kg body weight, 10 min before 11 Gy) of the same compound?
A: The Strahlenschutzwirkung was “keine Strahlenschutzwirkung”.

Q: What about the “Ueberlebensrate nach Bestrahlung mit 9 Gy” value (150 mg/kg i.p.) of the same compound?
A: The value was 10/10.

Q: And the “Ueberlebensrate nach Bestrahlung mit 10 Gy” value (150 mg/kg i.p.)?
A: The value was 9/10.

Q: And the “Ueberlebensrate nach Bestrahlung mit 11 Gy” value (150 mg/kg i.p., 10 min before 11 Gy)?
A: The value was 0/10.

Q: What about the Ueberlebensrate (225 mg/kg alone, injected 10 min before 13 Gy) of the same compound?
A: The Ueberlebensrate was 10%.

Q: And the “Ueberlebensrate nach Bestrahlung mit 14 Gy” value (225 mg/kg i.p., 2 min before 14 Gy)?
A: Its value is 0/10.

Q: And the “Ueberlebensrate nach Bestrahlung mit 10 Gy” value (225 mg/kg i.p.)?
A: Its value is 10/10^+.

Q: And the “Ueberlebensrate nach Bestrahlung mit 11 Gy” value (225 mg/kg i.p., 10 min before 11 Gy)?
A: Its value is 8/10^+.

Q: And the “Ueberlebensrate nach Bestrahlung mit 12 Gy” value (225 mg/kg i.p., 10 min before 12 Gy)?
A: The value was 6/10^+.

Q: What about the “Ueberlebensrate nach Bestrahlung mit 13 Gy” value (225 mg/kg i.p., 10 min before 13 Gy) of the same compound?
A: The value was 1/10^+.

Q: What about the “Ueberlebensrate nach Bestrahlung mit 14 Gy” value (225 mg/kg i.p., 10 min before 14 Gy) of the same compound?
A: Its value is 0/10.

Q: What about the “Ueberlebensrate nach Bestrahlung mit 11 Gy” value (225 mg/kg i.p., 30 min before 11 Gy) of the same compound?
A: Its value is 6/10.

Q: What about the “Ueberlebensrate nach Bestrahlung mit 12 Gy” value (225 mg/kg i.p., 30 min before 12 Gy) of the same compound?
A: The value was 1/10.

Q: And the “Ueberlebensrate nach Bestrahlung mit 11 Gy” value (225 mg/kg i.p., 120 min before 11 Gy)?
A: The value was 0/10.

Q: What about the “überlebten eine Bestrahlung mit 11 Gy” value (225 mg/kg, 10 min before 11 Gy, of 10 animals tested) of the same compound?
A: The value was 8.

Q: And the “überlebten eine Bestrahlung mit 12 Gy” value (225 mg/kg, 10 min before 12 Gy, of 10 animals tested)?
A: Its value is 6.

Q: And the “überlebten eine Bestrahlung mit 13 Gy” value (225 mg/kg, 10 min before 13 Gy, of 10 animals tested)?
A: Its value is 1.

Q: What about the “überlebten eine Bestrahlung mit 14 Gy” value (225 mg/kg, 10 min before 14 Gy, of 10 animals tested) of the same compound?
A: Its value is “keines”.

Q: What about the “überlebten eine Bestrahlung mit 11 Gy” value (225 mg/kg, 30 min before 11 Gy, of 10 animals tested) of the same compound?
A: The value was 6 Tiere.

Q: What about the “überlebten eine Bestrahlung mit 12 Gy” value (225 mg/kg, 30 min before 12 Gy, of 10 animals tested) of the same compound?
A: Its value is 1 Tier.

Q: Which Strahlenschutzwirkung (20 to 350 mg/kg body weight injected 10 min before 9 Gy, lethal dose already reached) does the source give for `N[C@@H](CC(=O)O)C(=O)[O-].[Na+]` [Natriumaspartat, reference compound] here?
A: Its Strahlenschutzwirkung is “wirkungslos”.

Q: With `N=C(N)SCCN` [AET, S-(2-Aminoäthyl)-isothiouroniunibromid-hydrobromid, reference compound] as the compound, how does the “Ueberlebensrate nach Bestrahlung mit 9 Gy” value (30 mg/kg i.p.) read?
A: The value was 1/10.

Q: And the Strahlenschutzwirksamkeit (125 mg/kg body weight, 10 min before irradiation)?
A: The Strahlenschutzwirksamkeit was “keine Strahlenschutzwirksamkeit”.

Q: And the “Ueberlebensrate nach Bestrahlung mit 11 Gy” value (125 mg/kg i.p., 10 min before 11 Gy)?
A: The value was 0/10.

Q: What about the “Ueberlebensrate nach Bestrahlung mit 13 Gy” value (125 mg/kg i.p., 10 min before 13 Gy) of the same compound?
A: Its value is 0/10.

Q: And the “überlebte eine Bestrahlung mit 11 Gy” value (125 mg/kg, 10 min before 11 Gy)?
A: The value was “kein Tier”.

Q: What about the “überlebte eine Bestrahlung mit 13 Gy” value (125 mg/kg, 10 min before 13 Gy) of the same compound?
A: The value was “kein Tier”.

Q: And the “Ueberlebensrate nach Bestrahlung mit 13 Gy” value (250 mg/kg i.p., 2 min before 13 Gy)?
A: The value was 0/10.

Q: And the “Ueberlebensrate nach Bestrahlung mit 11 Gy” value (250 mg/kg i.p., 10 min before 11 Gy)?
A: Its value is 10/10^+.

Q: What about the “Ueberlebensrate nach Bestrahlung mit 12 Gy” value (250 mg/kg i.p., 10 min before 12 Gy) of the same compound?
A: Its value is 9/10^+.

Q: And the “Ueberlebensrate nach Bestrahlung mit 13 Gy” value (250 mg/kg i.p., 10 min before 13 Gy)?
A: Its value is 2/10^+.

Q: What about the “Ueberlebensrate nach Bestrahlung mit 14 Gy” value (250 mg/kg i.p., 10 min before 14 Gy) of the same compound?
A: Its value is 0/10.

Q: What about the “Ueberlebensrate nach Bestrahlung mit 11 Gy” value (250 mg/kg i.p., 30 min before 11 Gy) of the same compound?
A: Its value is 10/10.

Q: And the “Ueberlebensrate nach Bestrahlung mit 12 Gy” value (250 mg/kg i.p., 30 min before 12 Gy)?
A: Its value is 2/10.

Q: What about the “Ueberlebensrate nach Bestrahlung mit 11 Gy” value (250 mg/kg i.p., 120 min before 11 Gy) of the same compound?
A: The value was 0/10.

Q: And the “überlebten eine Bestrahlung von 11 Gy” value (250 mg/kg, 10 min before 11 Gy)?
A: The value was “sämtliche”.

Q: And the “überlebten eine Bestrahlung von 12 Gy” value (250 mg/kg, 10 min before 12 Gy)?
A: The value was 9 von 10 getesteten Tieren.

Q: And the “überlebten eine Bestrahlung von 13 Gy” value (250 mg/kg, 10 min before 13 Gy)?
A: Its value is 2 von 10 getesteten Tieren.

Q: What about the “Bestrahlung von 14 Gy überlebt” value (250 mg/kg, 10 min before 14 Gy, 10 animals tested) of the same compound?
A: Its value is “von keinem der 10 getesteten Tiere”.

Q: What about the Ueberlebensrate in % (11 Gy) of the same compound?
A: The Ueberlebensrate in % was 100%.

Q: And the Ueberlebensrate in % (12 Gy)?
A: Its Ueberlebensrate in % is 90%.

Q: And the Ueberlebensrate in % (13 Gy)?
A: Its Ueberlebensrate in % is 20%.

Q: And the Ueberlebensrate in % (14 Gy)?
A: The Ueberlebensrate in % was 0%.

Q: `N[C@@H](CS)C(=O)O` [Cystein, reference compound] was tested. Which “Ueberlebensrate nach Bestrahlung mit 9 Gy” value (300 mg/kg i.p.) did it give?
A: The value was 0/10.

Q: And the “Ueberlebensrate nach Bestrahlung mit 9 Gy” value (600 mg/kg i.p.)?
A: Its value is 7/10.

Q: What about the “Ueberlebensrate nach Bestrahlung mit 10 Gy” value (600 mg/kg i.p.) of the same compound?
A: Its value is 3/10.

Q: And the “überlebten eine Bestrahlung mit 10 Gy” value (600 mg/kg)?
A: The value was 3 von 10 Mäusen.

Q: What about the “Ueberlebensrate nach Bestrahlung mit 9 Gy” value (900 mg/kg i.p.) of the same compound?
A: The value was 10/10^+.

Q: And the “Ueberlebensrate nach Bestrahlung mit 10 Gy” value (900 mg/kg i.p.)?
A: Its value is 4/10.

Q: What about the “Ueberlebensrate nach Bestrahlung mit 11 Gy” value (900 mg/kg i.p., 10 min before 11 Gy) of the same compound?
A: The value was 0/10.

Q: What about the “überlebten eine Bestrahlung mit 10 Gy” value (900 mg/kg) of the same compound?
A: Its value is 4 von 10 Mäusen.

Q: What about the “Ueberlebensrate nach Bestrahlung mit 10 Gy” value (1200 mg/kg i.p.) of the same compound?
A: The value was 9/10^+.

Q: What about the “Ueberlebensrate nach Bestrahlung mit 11 Gy” value (1200 mg/kg i.p., 10 min before 11 Gy) of the same compound?
A: The value was 2/10^+.

Q: And the “Ueberlebensrate nach Bestrahlung mit 12 Gy” value (1200 mg/kg i.p., 10 min before 12 Gy)?
A: The value was 1/10^+.

Q: What about the “Ueberlebensrate nach Bestrahlung mit 11 Gy” value (1200 mg/kg i.p., 30 min before 11 Gy) of the same compound?
A: Its value is 0/10.

Q: And the “überlebten eine Bestrahlung mit 10 Gy” value (1200 mg/kg)?
A: The value was 9 von 10 Mäusen.

Q: What about the “überlebten (11 Gy)” value (1200 mg/kg, 10 min before 11 Gy) of the same compound?
A: Its value is “zwei”.

Q: And the “Bestrahlung mit 11 Gy überlebt” value (600, 900 and 1200 mg/kg, 10 min before 11 Gy)?
A: Its value is “praktisch keinem der Tiere”.

Q: What about the Strahlenschutzwirkung [1] of the same compound?
A: The Strahlenschutzwirkung was “deutlich weniger wirksam”.

Q: `COc1ccc(CCCCNCCSS(=O)(=O)O)cc1` [reference compound] was tested. Which “Synergismus mit Zinkionen (Strahlenschutz)” value (in combination with zinc ions and zinc complexes, procedure of Example 6) did it give?
A: The value was “die besten Ergebnisse”.

Q: `N[C@@H](CCC(=O)N[C@@H](CS)C(=O)NCC(=O)O)C(=O)O` [L-Glutathion, reference compound] was tested. Which “überlebten eine Bestrahlung mit 9 Gy” value (100 mg/kg body weight (lower dose)) did it give?
A: The value was 3 von 10 Tieren.

Q: And the “Ueberlebensrate nach Bestrahlung mit 9 Gy” value (1000 mg/kg i.p.)?
A: The value was 3/10.

Q: What about the “überlebten eine Bestrahlung mit 9 Gy” value (2000 mg/kg body weight (higher dose)) of the same compound?
A: The value was 2 von 10 Tieren.

Q: What about the “Ueberlebensrate nach Bestrahlung mit 9 Gy” value (2000 mg/kg i.p.) of the same compound?
A: Its value is 2/10.

Q: And the Strahlenschutzwirkung [1]?
A: The Strahlenschutzwirkung was “deutlich weniger wirksam”.
